Columns and labels:
CTR1 = assay: Western blot of liver lysates, CTR1; assay type: in vivo, mouse; conditions: 6 and 24 hour timepoints
Experimental: (§1) Frozen mouse livers were minced into 50 mg samples on dry ice and homogenized in ice-cold RIPA buffer (25 mM Tris.HCl pH 7.6, 150 mM NaCl, 1% NP-40, 1% sodium deoxycholate, 0.1% SDS) containing protease inhibitor cocktail with EDTA (Roche) at 100 mg/mL using a hand-held mechanical homogenizer. Homogenates were incubated on ice for 30 min and centrifuged at 12,000×g for 20 min at 4° C. The soluble protein lysates were collected from underneath the upper lipid layer with a pipette and transferred to new tubes. Protein concentration was determined using a detergent-compatible Bradford Assay (Pierce).
(§2) Protein lysates were denatured in NuPAGE lithium dodecyl sulfate sample buffer (Invitrogen) containing 10% v/v β-mercaptoethanol as a reducing agent. […] The membranes were washed 5 times for 5 minutes in TBST, then visualized using enhanced chemiluminescence (Western Lighting Plus for visualizing CCS and ATP7B, Perkin Elmer; Western Clarity Max for visualizing CTR1 and MT, Bio-Rad) recorded on a BioRad GelDoc imaging station. β-actin was probed to determine equal loading using anti-β-actin (sc-69879, Santa Cruz Biotechnology) and AlexaFluor 647-conjugated anti-mouse IgG (A31571, Molecular Probes) antibodies at 1:5000 and 1:2500 dilutions, respectively, with visualization using fluorescence recorded on a BioRad GelDoc imaging station.

MT-I/MT-II = assay: Western blot of liver lysates, MT-I/II; assay type: in vivo, mouse; conditions: 6 hours and 24 hours
Experimental: as §1, §2

[1] = Stability in aqueous solutions at different pH (UV-vis); assay type: physicochemical; conditions: pH=3 to 8
Experimental: (§3) All spectroscopic measurements were performed in 20 mM PBS, pH 7.4 unless otherwise indicated. Absorption spectra were acquired on a Varian Cary 50 spectrophotometer.

[2] = Retention of copper in presence of excess Zn^2+ and Fe^2+; assay type: physicochemical; conditions: 1000-fold excess of Zn^2+ and Fe^2+
Experimental: as §3

HepG2 cells = assay: Cell viability, propidium iodide staining, HepG2; assay type: cell-based; conditions: 500 μM dose, HepG2, three hours
Experimental: (§4) Flow cytometry experiments were performed with BD LSR Fortessa Cell Analyzer in the College of Chemistry at UC Berkeley. Gains were set to include live cells based on viability experiments using propidium iodide, with dead cells via 0.1% saponin treatment as a negative control. The standard PE-A (570 nm longpass, 586/15 nm bandpass) was used. For each biological replicate, three technical replicates of 5,000 (HepG2) or 10,000 cells (HEK 293T) were counted. Flow cytometry data was processed using FlowJo (FlowJo, LLC).
(§5) HEK 293T cells were plated in 6-well plates at 60-80% confluency. After ionophore treatment at the given concentration for three hours, cells were washed with DMEM and incubated with 3 μM propidium iodide in PBS for 15 minutes, then rinsed in PBS. HEK 293T cells were mechanically removed via pipetting off the plate with 1 mL PBS and filtered through a 35 μm nylon mesh into 5 mL culture tubes for analysis. HepG2 cells were plated in 12-well plates at 60-80% confluency. […]

HEK 293T cells = assay: Cell viability, propidium iodide staining, HEK 293T; assay type: cell-based; conditions: 500 μM dose, three hours
Experimental: as §4, §5

[3] = test system: blood urea nitrogen (BUN); assay: Blood urea nitrogen (BUN) assay on serum; assay type: in vivo, mice; conditions: 0.75 mg Cu/kg
Experimental: Mice were immediately euthanized by cervical dislocation.
Liver lysate (TBARS Assay via TCA Method, Cayman Chemical) and serum (BUN Assay, Invitrogen; ALT Assay, Cayman Chemical) samples were processed according to manufacturer instructions; sample concentration was selected based on initial dilution screening to fall within linear range of the standard curve. All samples were analyzed in triplicate.

[4] = mouse, in vivo
Experimental: FVB-luc+ mice were heavily anesthetized and blood was collected via cardiac puncture. Mice were immediately euthanized by cervical dislocation. Tissues were harvested, rinsed twice with DPBS, snap-frozen under liquid nitrogen, and placed on dry ice in cryotubes and stored at −80° C. until analysis. Serum was isolated by allowing blood samples to coagulate for 1 hour at room temperature, centrifuging at 1,500 g for 15 minutes at 4° C., then collecting the serum supernatant. Samples were aliquoted, snap-frozen, and stored at −80° C. until analysis.
20-100 mg portions of the harvested tissues were digested in concentrated nitric acid (100 mg tissue/mL HNO3, BDH Aristar Ultra) at 95° C. for 2 h in 1.5 mL tubes (Sarstedt) with small holes poked in the caps with an 18G needle. After overnight incubation at room temperature, samples were diluted into freshly prepared 2% nitric acid and doped with a gallium internal standard (Inorganic Ventures, diluted from 1 ppm in 2% nitric acid to a 20 ppb final concentration). The copper content was determined by measuring ^63Cu using a Thermo Fisher iCAP-Qc ICP-MS in Kinetic Energy Discrimination (KED) mode. Measurements were normalized to a standard curve of known copper concentrations doped with 20 ppb Ga. The standard curve was diluted from CMS-5 (Inorganic Ventures).

Question: What does the source list for `CNC1=N[N+]2=CC=[N+]3N=C(NCCOCCOCCOC4OC(CO)C(O)C(O)C4NC(C)=O)[S][Cu-2]23[S]1` (stereo not drawn) [Gal-Cu(gtsm)]?
Answer: CTR1 expression (monomer and truncated forms) in liver (CTR1): Increased expression; MT-I/MT-II expression in liver (MT-I/MT-II): increases dramatically; stability of complex in aqueous buffers [1]: stable; retention of copper in presence of other metal ions [2]: retains copper selectively; ionophore toxicity (cell viability) (HepG2 cells): non-toxic; ionophore toxicity (cell viability) (HEK 293T cells): non-toxic; BUN levels [3]: not; hepatic copper delivered relative to Cu(gtsm) [4]: ca. 4 times; time for hepatic copper stores to clear to basal levels ([4]; ip): 72 h

Source: patent US11504394B2, “Targeted ionophore-based metal delivery” (The Regents of the University of California, priority 2018, dated 2022)
